pIC50: −log10 of the molar value.
Columns and labels:
[1] = test system: HCV replicon RNA (GenBank Accession No. AJ242654); assay: HCV Replicon Assay (replicon RNA reduction and/or Fluc reporter signal); format: cell-based, Hepatitis C virus; conditions: Hepatitis C virus, 72 h, replicon-containing cells cultured with test compound for up to 3 days
In short: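 Bicistronic replicon-containing cells cultured with compound for up to 3 days, with interferon as positive control. Inhibition quantified by replicon RNA reduction and/or Fluc reporter signal; IC50 values generally derived from replicon RNA reduction.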

SMILES	melting point [°C]	pIC50 [1]
CC1(NS(=O)(=O)c2ccc(-c3c(C#N)c4cc(C(F)(F)F)cnc4n3C3CCC3)nc2)CC1 [Cpd 398, 6-[3-cyano-1-cyclobutyl-5-(trifluoromethyl)-1H-pyrrolo[2,3-b]pyridin-2-yl]-N-(1-methylcyclopropyl)pyridine-3-sulfonamide]	172 to 175	> 6.30
CC(C)(NS(=O)(=O)c1ccc(-c2c(C(N)=O)c3cc(C(F)(F)F)cnc3n2C2CCC2)nc1)C(F)(F)F [Cpd 399, 1-cyclobutyl-5-(trifluoromethyl)-2-{5-[(1,1,1-trifluoro-2-methylpropan-2-yl)sulfamoyl]pyridin-2-yl}-1H-pyrrolo[2,3-b]pyridine-3-carboxamide]	217 to 219	> 6.30
NC(=O)c1c(-c2ccc(S(=O)(=O)NC3(C(F)(F)F)CC3)cn2)n(C2CCC2)c2ncc(C(F)(F)F)cc12 [Cpd 400, 1-cyclobutyl-5-(trifluoromethyl)-2-(5-{[1-(trifluoromethyl)cyclopropyl]sulfamoyl}pyridin-2-yl)-1H-pyrrolo[2,3-b]pyridine-3-carboxamide]	230 to 235	> 6.30
CC(C)(NS(=O)(=O)c1ccc(-c2c(C(N)=O)c3cc(C(F)(F)F)cnc3n2C2CCC2)cc1)C(F)(F)F [Cpd 401, 1-cyclobutyl-5-(trifluoromethyl)-2-{4-[(1,1,1-trifluoro-2-methylpropan-2-yl)sulfamoyl]phenyl}-1H-pyrrolo[2,3-b]pyridine-3-carboxamide]	239 to 241	> 6.30
NC(=O)c1c(-c2ccc(S(=O)(=O)NC3(C(F)(F)F)CC3)cc2)n(C2CCC2)c2ncc(C(F)(F)F)cc12 [Cpd 402, 1-cyclobutyl-5-(trifluoromethyl)-2-(4-{[1-(trifluoromethyl)cyclopropyl]sulfamoyl}phenyl)-1H-pyrrolo[2,3-b]pyridine-3-carboxamide]	261 to 263	> 6.30
CC(C)(C)NS(=O)(=O)c1ccc(-c2c(C(N)=O)c3cc(C(F)(F)F)cnc3n2C2CCC2)cc1 [Cpd 403, 2-[4-(tert-butylsulfamoyl)phenyl]-1-cyclobutyl-5-(trifluoromethyl)-1H-pyrrolo[2,3-b]pyridine-3-carboxamide]	255 to 257	> 6.30
CC(C)(C)S(=O)(=O)Nc1ccc(-c2c(C(N)=O)c3cc(C(F)(F)F)cnc3n2C2CCC2)cc1 [Cpd 404, 2-{4-[(tert-butylsulfonyl)amino]phenyl}-1-cyclobutyl-5-(trifluoromethyl)-1H-pyrrolo[2,3-b]pyridine-3-carboxamide]	257 to 259	> 6.30
Cc1nc2c(cc1C(F)(F)F)c(C#N)c(-c1ccc(S(=O)(=O)N[C@@H](C)C(F)(F)F)cn1)n2C1CCC1 [Cpd 405, 6-[3-cyano-1-cyclobutyl-6-methyl-5-(trifluoromethyl)-1H-pyrrolo[2,3-b]pyridin-2-yl]-N-[(2S)-1,1,1-trifluoropropan-2-yl]pyridine-3-sulfonamide]	201 to 203	> 6.30
CC(C)(NS(=O)(=O)c1ccc(-c2c(C(N)=O)c3cc(C(F)(F)F)cnc3n2C2CCCC2)nc1)C(F)(F)F [Cpd 406, 1-cyclopentyl-5-(trifluoromethyl)-2-{5-[(1,1,1-trifluoro-2-methylpropan-2-yl)sulfamoyl]pyridin-2-yl}-1H-pyrrolo[2,3-b]pyridine-3-carboxamide]	244 to 246	> 6.30
NC(=O)c1c(-c2ccc(S(=O)(=O)NC3(C(F)(F)F)CC3)cn2)n(C2CCCC2)c2ncc(C(F)(F)F)cc12 [Cpd 407, 1-cyclopentyl-5-(trifluoromethyl)-2-(5-{[1-(trifluoromethyl)cyclopropyl]sulfamoyl}pyridin-2-yl)-1H-pyrrolo[2,3-b]pyridine-3-carboxamide]	262 to 264	> 6.30
